Experimental data as given in article PMC9518609, “Design and synthesis of new trimethoxylphenyl-linked combretastatin analogues loaded on diamond nanoparticles as a panel for ameliorated solubility and antiproliferative activity” (Journal of Enzyme Inhibition and Medicinal Chemistry, 2022).

System: Bcl-2
Assay: ELISA measurement of Bcl-2 level in MDA-MB-231 cells
Assay type: cell-based
Conditions: MDA-MB-231, at IC50, 24 h
Text: p53, Bax, and Bcl-2 are key regulators of the apoptosis process to keep the balance between viable and dead normal cells. Deregulation of these proteins is a common feature responsible for uncontrolled cancer cell growth. In this test, the protein expression of apoptotic regulators was examined using ELISA analysis. […]
p53, Bax, and Bcl2 enzyme activities in MDA-MB-231 cells were investigated in the presence of compounds 6 and 12 at their IC50 concentration (µM). The levels of the tumour suppressor gene p53, apoptotic markers Bax as well as the anti-apoptotic marker Bcl-2 were assessed using the p53 ELISA kit, Human Bax ELISA kit, and Bcl-2 Elisa kit. The procedure of the used kits was done according to the manufacturer's instructions and was conducted as reported earlier. […]
4.3.4.2. Effect on p53, Bax and Bcl-2 p53, Bax and Bcl2 enzyme activities in MDA-MB-231 cells were detected in the presence of compounds 6 and 12 at their IC50 concentration (µM). The levels of the tumor suppressor gene p53, apoptotic markers Bax as well as the anti-apoptotic marker Bcl-2 were assessed using p53 ELISA kit, Human Bax ELISA kit and Bcl-2 Elisa kit. The procedure of the used kits was done according to the manufacturer's instructions. […] The samples were measured at 450 nm in ROBONEK P2000 ELISA reader. […]

Row | Compound | Bcl-2 level decrease compared with no treatment control [fold]
1 | COc1cc(C=C2N=C(c3cc(OC)c(OC)c(OC)c3)N(c3ccccc3)NC2=O)cc(OC)c1OC [Compound 6, 2-phenyl-5-(3,4,5-trimethoxybenzylidene)-3-(3,4,5-trimethoxyphenyl)-1,2-dihydro-1,2,4-triazin-6(5H)-one] | 6.49
2 | ethyl 2-(2-(6-oxo-5-(3,4,5-trimethoxybenzylidene)-3–(3,4,5-trimethoxyphenyl)-5,6-dihydro-1,2,4-triazin-2(1H)-yl)thiazol-4-yl)acetate [Compound 12] | 2.96
